For experiment [1], the target named is T1, wt human TYK2, catalytic site (Homo sapiens, UniProt P29597).
T1 construct: wt human TYK2, catalytic site; purchased SignalChem
T1 sequence (P29597 897-1176 limits assumed): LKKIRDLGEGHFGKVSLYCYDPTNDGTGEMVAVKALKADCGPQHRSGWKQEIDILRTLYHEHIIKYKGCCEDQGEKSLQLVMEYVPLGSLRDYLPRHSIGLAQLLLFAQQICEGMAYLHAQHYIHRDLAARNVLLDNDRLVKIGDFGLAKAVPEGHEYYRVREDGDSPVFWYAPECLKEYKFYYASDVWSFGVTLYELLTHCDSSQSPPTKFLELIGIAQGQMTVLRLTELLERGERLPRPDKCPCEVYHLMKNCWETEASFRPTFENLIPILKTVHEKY
The experiment in a line: HTRF KinEASE assay, TYK2. Format: biochemical. Conditions: 1 μM ATP; read-out: IC50, Activity Toward TYK2. The method, then:
(§1) Basic protocol for HTRF KinEASE assay (Cisbio/FRA) inhibitor studies involved two steps: • Enzymatic step: Addition of 4 μL of test compound in corresponding DMSO dilutions, 4 μL of kinase/substrate mixture, 2 μL of ATP into 384 well small volume plates. Incubation for at least 30 minutes at room temperature. • Detection step: Addition of 5 μL antibody and 5 μL streptavidin-XL665, read plate after 60 minutes. Data analysis of emission ratios according KinEASE assay protocol.
(§2) Kinase and assay components were adjusted to final concentrations according to kit protocol. For TYK2: 2 nM wt human TYK2, catalytic site (SignalChem/CAN), 1 μM HTRF KinEASE-TK Substrate-biotin, 1 μM ATP in 1× Kinase Buffer. For JAK1: 4 nM wt human JAK1, catalytic site (ThermoFisher/USA), 1 μM HTRF KinEASE-TK Substrate-biotin, 2.5 μM ATP in 1× Kinase Buffer. For JAK2: 1 nM wt human JAK2, catalytic site (SignalChem/CAN), 1 μM HTRF KinEASE-TK Substrate-biotin, 100 μM ATP in 1× Kinase Buffer.
as §2
Background: TR-FRET usually uses a lanthanide donor and a delayed reading to cut background.

Experiment [2] concerns the target T2, wt human JAK1, catalytic site (Homo sapiens, UniProt P23458).
T2 construct: wt human JAK1, catalytic site; purchased ThermoFisher
The experiment can be described thus: HTRF KinEASE assay, JAK1. Format: biochemical. The following applies: 2.5 μM ATP; read-out: IC50, Activity Toward JAK1. The method, then: as §1
(§3) Kinase and assay components were adjusted to final concentrations according to kit protocol. For TYK2: 2 nM wt human TYK2, catalytic site (SignalChem/CAN), 1 μM HTRF KinEASE-TK Substrate-biotin, 1 μM ATP in 1× Kinase Buffer. […] For JAK2: 1 nM wt human JAK2, catalytic site (SignalChem/CAN), 1 μM HTRF KinEASE-TK Substrate-biotin, 100 μM ATP in 1× Kinase Buffer.
as §3

The record followed here is patent US20230373985A1 (Origenis Gmbh, priority 2020, published 2023).

Where only a bound is given, the exact number is not on record here.

T2 sequence (P23458 875-1153 limits assumed): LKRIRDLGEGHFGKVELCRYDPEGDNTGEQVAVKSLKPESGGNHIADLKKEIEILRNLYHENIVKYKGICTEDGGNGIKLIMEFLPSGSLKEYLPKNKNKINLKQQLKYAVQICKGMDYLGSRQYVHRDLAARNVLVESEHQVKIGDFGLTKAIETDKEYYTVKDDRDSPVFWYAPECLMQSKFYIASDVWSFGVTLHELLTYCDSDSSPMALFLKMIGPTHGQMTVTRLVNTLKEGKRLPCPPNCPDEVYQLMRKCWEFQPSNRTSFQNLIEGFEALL

Consider `NC(=O)c1nn(-c2c(Cl)cccc2Cl)cc1Nc1ccc(C(=O)N2CCS(=O)(=O)CC2)nc1` [compound 463, 1-(2,6-dichlorophenyl)-4-((6-(1,1-dioxidothiomorpholine-4-carbonyl)pyridin-3-yl)amino)-1H-pyrazole-3-carboxamide], for which the IC50 (usually the midpoint of a concentration-inhibition curve) in experiment [1] is below 10 nM; in experiment [2], 10 to 100 nM. For `NC(=O)c1nn(-c2c(Cl)cccc2Cl)nc1Nc1ccc(C(=O)N2CCCC2)cn1` [compound 137, 2-(2,6-dichlorophenyl)-5-((5-(pyrrolidine-1-carbonyl)pyridin-2-yl)amino)-2H-1,2,3-triazole-4-carboxamide], the half-maximal inhibitory concentration (IC50) in experiment [1] and in experiment [2] was 10 to 100 nM throughout. Consider `Cc1cnncc1-c1ccc(Nc2cn(-c3c(Cl)cccc3Cl)nc2C(N)=O)cn1` [compound 350, 1-(2,6-dichlorophenyl)-4-((6-(5-methylpyridazin-4-yl)pyridin-3-yl)amino)-1H-pyrazole-3-carboxamide], for which the IC50 in experiment [1] and in experiment [2] was 100 to 1000 nM each time. As to `Cn1cc(C(F)(F)F)nc1-c1ccc(Nc2cn(-c3c(Cl)cccc3Cl)nc2C(N)=O)nc1` [compound 433, 1-(2,6-dichlorophenyl)-4-((5-(1-methyl-4-(trifluoromethyl)-1H-imidazol-2-yl)pyridin-2-yl)amino)-1H-pyrazole-3-carboxamide], the half-maximal inhibitory concentration (IC50) in experiment [1] and in experiment [2] was 10 to 100 nM in each case. Regarding `Cc1nc2cc(Nc3cn(-c4c(Cl)cccc4Cl)nc3C(N)=O)ccc2n1C` [compound 43, 1-(2,6-dichlorophenyl)-4-((1,2-dimethyl-1H-benzo[d]imidazol-5-yl)amino)-1H-pyrazole-3-carboxamide], the half-maximal inhibitory concentration (IC50) in experiment [1] and in experiment [2] was 100 to 1000 nM in each case.

`NC(=O)c1nn(-c2c(Cl)cccc2Cl)nc1Nc1ccc(C(=O)N2CC(F)(F)C(F)(F)C2)cn1` [compound 132, 2-(2,6-dichlorophenyl)-5-((5-(3,3,4,4-tetrafluoropyrrolidine-1-carbonyl)pyridin-2-yl)amino)-2H-1,2,3-triazole-4-carboxamide]: the IC50 in experiment [1] and in experiment [2] was 100 to 1000 nM each time.

As to `NC(=O)c1nn(-c2c(Cl)cccc2Cl)cc1Nc1ccc(-c2nnc3cncc(Cl)n23)nc1` [compound 447, 4-((6-(5-chloro-[1,2,4]triazolo[4,3-a]pyrazin-3-yl)pyridin-3-yl)amino)-1-(2,6-dichlorophenyl)-1H-pyrazole-3-carboxamide], the 50% inhibitory concentration (IC50) in experiment [1] and in experiment [2] was 10 to 100 nM throughout. `CCc1cnncc1-c1ccc(Nc2cn(-c3c(Cl)cccc3Cl)nc2C(N)=O)cn1` [compound 351, 1-(2,6-dichlorophenyl)-4-((6-(5-ethylpyridazin-4-yl)pyridin-3-yl)amino)-1H-pyrazole-3-carboxamide]: the values for the IC50 in experiment [1] and in experiment [2] were 10 to 100 nM and 100 to 1000 nM, respectively. Taken in the same sequence, the figures for `Cc1nc(C(F)(F)F)nn1-c1ccc(Nc2cn(-c3c(Cl)cccc3Cl)nc2C(N)=O)cc1` [compound 275, 1-(2,6-dichlorophenyl)-4-((4-(5-methyl-3-(trifluoromethyl)-1H-1,2,4-triazol-1-yl)phenyl)amino)-1H-pyrazole-3-carboxamide] were below 10 nM and 10 to 100 nM. Turning to `CC(C)(C)NC(=O)c1ccc(Nc2cn(-c3c(Cl)cccc3Cl)nc2C(N)=O)cc1F` [compound 28, 4-((4-(tert-butylcarbamoyl)-3-fluorophenyl)amino)-1-(2,6-dichlorophenyl)-1H-pyrazole-3-carboxamide], the IC50 in experiment [1] is 10 to 100 nM; in experiment [2], 100 to 1000 nM.

As for `CN1CCCN(C(=O)c2ccc(Nc3cn(-c4c(Cl)cccc4Cl)nc3C(N)=O)nc2)CC1` [compound 448, 1-(2,6-dichlorophenyl)-4-((5-(4-methyl-1,4-diazepane-1-carbonyl)pyridin-2-yl)amino)-1H-pyrazole-3-carboxamide], the IC50 was 100 to 1000 nM in experiment [1] and 10 to 100 nM in experiment [2].

For the molecule `NC(=O)c1nn(-c2c(Cl)cccc2Cl)cc1Nc1ccc(C(=O)N2CC(F)(F)C(F)(F)C2)nc1` [compound 362, 1-(2,6-dichlorophenyl)-4-((6-(3,3,4,4-tetrafluoropyrrolidine-1-carbonyl)pyridin-3-yl)amino)-1H-pyrazole-3-carboxamide], the IC50 lay in the range of 10 to 100 nM in experiment [1] and 100 to 1000 nM in experiment [2]. Consider `Cn1cnnc1-c1ccc(Nc2cn(-c3c(Cl)cccc3Cl)nc2C(N)=O)cn1` [compound 360, 1-(2,6-dichlorophenyl)-4-((6-(4-methyl-4H-1,2,4-triazol-3-yl)pyridin-3-yl)amino)-1H-pyrazole-3-carboxamide], for which the IC50 in experiment [1] lay within 10 to 100 nM; in experiment [2], 100 to 1000 nM. Taken in the same sequence, the figures for `NC(=O)c1nn(-c2c(Cl)cccc2Cl)cc1Nc1ccc(-n2nnc3c2CCCC3)cc1` [compound 73, 1-(2,6-dichlorophenyl)-4-((4-(4,5,6,7-tetrahydro-1H-benzo[d][1,2,3]triazol-1-yl)phenyl)amino)-1H-pyrazole-3-carboxamide] were 10 to 100 nM and 100 to 1000 nM. Regarding `COc1cc(Cl)c(-n2nc(Nc3ccc(C(=O)N4CCSCC4)cc3)c(C(N)=O)n2)c(Cl)c1` [compound 176, 2-(2,6-dichloro-4-methoxyphenyl)-5-((4-(thiomorpholine-4-carbonyl)phenyl)amino)-2H-1,2,3-triazole-4-carboxamide], the IC50 lay within 100 to 1000 nM in experiment [1] and 10 to 100 nM in experiment [2]. As to `NC(=O)c1nn(-c2c(Cl)cccc2Cl)cc1Nc1ccc(-n2nncc2C(F)(F)F)cn1` [compound 437, 1-(2,6-dichlorophenyl)-4-((5-(5-(trifluoromethyl)-1H-1,2,3-triazol-1-yl)pyridin-2-yl)amino)-1H-pyrazole-3-carboxamide], the IC50 in experiment [2] was in the range of 100 to 1000 nM.

As for `Cc1cn(-c2ccc(Nc3cn(-c4c(Cl)cccc4Cl)nc3C(N)=O)cc2)nc1C` [compound 217, 1-(2,6-dichlorophenyl)-4-((4-(3,4-dimethyl-1H-pyrazol-1-yl)phenyl)amino)-1H-pyrazole-3-carboxamide], the 50% inhibitory concentration (IC50) in experiment [2] lay within 100 to 1000 nM. Same read-out and setting: to `NC(=O)c1nn(-c2c(Cl)cccc2Cl)nc1Nc1ccc(-n2nncc2C(F)(F)F)cc1` [compound 155, 2-(2,6-dichlorophenyl)-5-((4-(5-(trifluoromethyl)-1H-1,2,3-triazol-1-yl)phenyl)amino)-2H-1,2,3-triazole-4-carboxamide] belongs 10 to 100 nM; to `CCc1nc(C(F)(F)F)nn1-c1ccc(Nc2nn(-c3c(Cl)cccc3Cl)nc2C(N)=O)cc1` [compound 121], 100 to 1000 nM; to `NC(=O)c1nn(-c2c(Cl)cccc2Cl)cc1Nc1ccc(-n2ccc(Cl)n2)cc1` [compound 76, 4-((4-(3-chloro-1H-pyrazol-1-yl)phenyl)amino)-1-(2,6-dichlorophenyl)-1H-pyrazole-3-carboxamide], 100 to 1000 nM. The same measure, in the same setting: then `CS(=O)(=O)n1cc(Nc2nn(-c3c(Cl)cccc3Cl)nc2C(N)=O)cn1` [Compound No. 172, 2-(2,6-dichlorophenyl)-5-((1-(methylsulfonyl)-1H-pyrazol-4-yl)amino)-2H-1,2,3-triazole-4-carboxamide], with 100 to 1000 nM; and `CCc1cccnc1-c1ccc(Nc2cn(-c3c(Cl)cccc3Cl)nc2C(N)=O)cc1` [compound 234, 1-(2,6-dichlorophenyl)-4-((4-(3-ethylpyridin-2-yl)phenyl)amino)-1H-pyrazole-3-carboxamide], with 100 to 1000 nM. On the same count and under the same terms, to `CCc1c(C)nn(-c2ccc(Nc3cn(-c4c(Cl)cccc4Cl)nc3C(N)=O)cc2)c1C` [compound 222, 1-(2,6-dichlorophenyl)-4-((4-(4-ethyl-3,5-dimethyl-1H-pyrazol-1-yl)phenyl)amino)-1H-pyrazole-3-carboxamide] belongs 100 to 1000 nM. On to `CCCn1cc(C(F)(F)F)nc1-c1ccc(Nc2cn(-c3c(Cl)cccc3Cl)nc2C(N)=O)cc1` [compound 311, 1-(2,6-dichlorophenyl)-4-((4-(1-propyl-4-(trifluoromethyl)-1H-imidazol-2-yl)phenyl)amino)-1H-pyrazole-3-carboxamide], for which, in experiment [1], the half-maximal inhibitory concentration (IC50) fell in the range of 100 to 1000 nM. As to `NC(=O)c1nn(-c2c(Cl)cccc2Cl)cc1Nc1ccccc1` [compound 21, 1-(2,6-dichlorophenyl)-4-(phenylamino)-1H-pyrazole-3-carboxamide], the IC50 in experiment [1] was in the range of 100 to 1000 nM.

As to `CCCc1nc(C(F)(F)F)nn1-c1ccc(Nc2cn(-c3c(Cl)cccc3Cl)nc2C(N)=O)cc1` [compound 279, 1-(2,6-dichlorophenyl)-4-((4-(5-propyl-3-(trifluoromethyl)-1H-1,2,4-triazol-1-yl)phenyl)amino)-1H-pyrazole-3-carboxamide], in experiment [1], the 50% inhibitory concentration (IC50) is 100 to 1000 nM.
